# Biological target: T1, CILK1 (Homo sapiens, UniProt Q9UPZ9)
# T1 construct: purchased protein (Abcam ab101774)
# T1 sequence (Q9UPZ9 1-632): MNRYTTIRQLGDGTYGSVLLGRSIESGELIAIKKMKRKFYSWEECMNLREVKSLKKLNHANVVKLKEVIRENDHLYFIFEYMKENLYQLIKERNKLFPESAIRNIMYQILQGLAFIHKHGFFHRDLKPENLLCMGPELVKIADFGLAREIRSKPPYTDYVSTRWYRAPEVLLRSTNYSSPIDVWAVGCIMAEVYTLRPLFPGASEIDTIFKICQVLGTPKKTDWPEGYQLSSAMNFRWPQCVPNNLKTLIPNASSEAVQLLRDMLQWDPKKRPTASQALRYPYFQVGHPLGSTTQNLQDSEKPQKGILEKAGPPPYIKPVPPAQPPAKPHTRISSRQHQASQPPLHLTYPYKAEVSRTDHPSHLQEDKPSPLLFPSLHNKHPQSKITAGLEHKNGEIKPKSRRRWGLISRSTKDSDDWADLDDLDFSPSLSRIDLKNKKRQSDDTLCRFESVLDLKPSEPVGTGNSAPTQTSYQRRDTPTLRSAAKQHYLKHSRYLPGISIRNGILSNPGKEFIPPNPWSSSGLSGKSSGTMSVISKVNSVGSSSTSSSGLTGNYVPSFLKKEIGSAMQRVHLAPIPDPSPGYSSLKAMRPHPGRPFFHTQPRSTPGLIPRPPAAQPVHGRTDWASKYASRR
# Assay: surface plasmon resonance, […] Langmuir fit
# Format: binding
# Conditions: 3D Dextran chip; 1.5625-25 μM analyte
structure (smiles),measurement,value
CCc1ccc2nc(Nc3nc(C)c(Cc4ccc(C)cc4)c(=O)[nH]3)nc(C)c2c1 [CILK1-C30],Kd,108 nM

# — PMC11077371, “Ciliogenesis-associated Kinase 1 Promotes Breast Cancer Cell Proliferation and Chemoresistance via Phosphorylating ERK1” (International Journal of Biological Sciences, 2024)
